# Results published in DBAASP.
# “And” between values parts separate entries of the source, which are not always exact repeats. Equal entries are not always repeated.
# What was measured:
# Test in all cases: ≥ marks a high value that may be exact or a test limit, other limits are often not marked, values filed in µg/mL are converted to µM
# [1] = tested on: Candida albicans CGMCC 2.2086
# [2] = tested on: Candida parapsilosis CGMCC 2.3989
# [3] = tested on: Candida tropicalis CGMCC 2.1975
# Escherichia coli 078 = tested on: Escherichia coli 078
# Escherichia coli K88 = tested on: Escherichia coli K88
# Escherichia coli K99 = tested on: Escherichia coli K99
# Escherichia coli UB1005 = tested on: Escherichia coli UB1005
# [4] = tested on: Pseudomonas aeruginosa ATCC 27853
# [5] = tested on: Salmonella enterica subsp. enterica serovar Pullorum ATCC 7913
# [6] = tested on: Salmonella enterica subsp. enterica serovar Typhimurium ATCC 14028
# [7] = tested on: Salmonella enterica subsp. enterica serovar Typhimurium C77-31
# [8] = tested on: Staphylococcus aureus ATCC 25923
# [9] = tested on: Staphylococcus aureus ATCC 43300
# [10] = tested on: Staphylococcus epidermidis ATCC 12228
# [11] = tested on: Candida albicans NCYC 1467
# [12] = tested on: Enterococcus faecalis NCTC 12697
# [13] = tested on: Escherichia coli NCTC 10418
# [14] = tested on: Klebsiella pneumoniae ATCC 43816
# [15] = tested on: Staphylococcus aureus NCTC 10788
# [16] = tested on: Staphylococcus aureus NCTC 12493
# [17] = tested on: Micrococcus luteus ATCC 49732
# Candida albicans = tested on: Candida albicans
# [18] = tested on: Bacillus subtilis ATCC 23857
# [19] = tested on: Candida albicans ATCC 10231
# [20] = tested on: Escherichia coli ATCC 25922
# [21] = tested on: Klebsiella aerogenes ATCC 13048
# [22] = tested on: Pseudomonas aeruginosa ATCC 9027
# [23] = tested on: Staphylococcus aureus ATCC 29737
# [24] = tested on: Acinetobacter baumannii ATCC 19606
# [25] = tested on: Candida albicans ATCC 90028
# [26] = tested on: Cryptococcus neoformans ATCC 208821
# [27] = tested on: Klebsiella pneumoniae ATCC 700603
smiles,measurement,setting,value
CC[C@H](C)[C@H](NC(=O)[C@H](CCCN=C(N)N)NC(=O)[C@H](C)NC(=O)[C@H](C)N)C(=O)N[C@H](C(=O)N[C@@H](CC(C)C)C(=O)N[C@@H](CCCN=C(N)N)C(=O)N[C@@H](CCCN=C(N)N)C(=O)N[C@@H](CCCN=C(N)N)C(=O)N[C@@H](Cc1ccccc1)C(=O)N[C@@H](CCCN=C(N)N)C(N)=O)[C@@H](C)CC [AARIILRRRFR],MIC,[1],≥ 128 µM
same,MIC,[2],≥ 64 µM
same,MIC,[3],≥ 64 µM
same,MIC,Escherichia coli 078,16 µM
same,MIC,Escherichia coli K88,16 µM
same,MIC,Escherichia coli K99,8 µM
same,MIC,Escherichia coli UB1005,16 µM
same,MIC,[4],> 128 µM
same,MIC,[5],16 µM
same,MIC,[6],32 µM
same,MIC,[7],8 µM
same,MIC,[8],32 µM
same,MIC,[9],16 µM
same,MIC,[10],16 µM
CC[C@H](C)[C@H](NC(=O)[C@H](C)NC(=O)[C@H](CO)NC(=O)[C@@H](NC(=O)[C@@H](NC(=O)[C@H](CCCCN)NC(=O)[C@@H]1CCCN1C(=O)[C@@H](NC(=O)[C@H](CC(C)C)NC(=O)[C@H](CO)NC(=O)[C@H](CC(C)C)NC(=O)[C@@H](N)Cc1ccccc1)[C@@H](C)CC)[C@@H](C)CC)[C@@H](C)CC)C(=O)N[C@@H](CO)C(=O)N[C@@H](C)C(=O)N[C@@H](CC(C)C)C(=O)N[C@H](C(=O)N[C@@H](CC(N)=O)C(=O)N[C@@H](Cc1cnc[nH]1)C(=O)N[C@@H](Cc1ccccc1)C(N)=O)[C@@H](C)CC [FLSLIPKIISAISALINHF],MIC,[11],≥ 32 µM
same,MIC,[12],≥ 32 µM
same,MIC,[13],≥ 512 µM
same,MIC,[14],≥ 512 µM
same,MIC,[4],> 512 µM
same,MIC,[15],2 µM
same,MIC,[16],≥ 128 µM
CC[C@H](C)[C@H](NC(=O)[C@H](CO)NC(=O)[C@@H]1CCCN1C(=O)[C@H](CC(C)C)NC(=O)[C@H](CC(C)C)NC(=O)[C@H](CO)NC(=O)[C@H](CC(C)C)NC(=O)[C@@H](N)Cc1ccccc1)C(=O)N[C@H](C(=O)N[C@@H](CO)C(=O)NCC(=O)N[C@@H](C)C(=O)N[C@H](C(=O)N[C@@H](CO)C(=O)N[C@@H](CC(C)C)C(=O)N[C@@H](C)C(=O)N[C@@H](CCCCN)C(=O)N[C@@H](CCCCN)C(=O)N[C@@H](CC(C)C)C(N)=O)C(C)C)C(C)C [FLSLLPSIVSGAVSLAKKL],MIC,[17],1.3 µM
CC(C)C[C@H](NC(=O)[C@H](CCC(N)=O)NC(=O)[C@H](CCC(N)=O)NC(=O)[C@H](C)NC(=O)CNC(=O)[C@H](C)NC(=O)[C@H](CCCCN)NC(=O)CNC(=O)[C@@H](NC(=O)[C@H](CCC(N)=O)NC(=O)[C@H](CCCCN)NC(=O)[C@H](CCCN=C(N)N)NC(=O)[C@H](CC(C)C)NC(=O)[C@H](Cc1ccc(O)cc1)NC(=O)[C@H](CCCCN)NC(=O)[C@H](C)NC(=O)CNC(=O)[C@H](C)NC(=O)[C@H](CCCCN)NC(=O)[C@H](Cc1ccccc1)NC(=O)[C@H](CC(C)C)NC(=O)[C@H](CO)NC(=O)[C@H](CO)NC(=O)[C@H](Cc1ccccc1)NC(=O)CN)C(C)C)C(N)=O [GFSSLFKAGAKYLRKQVGKAGAQQL],MIC,[11],≥ 64 µM
same,MIC,[12],16 µM
same,MIC,[13],8 µM
same,MIC,[14],≥ 128 µM
same,MIC,[4],16 µM
same,MIC,[15],16 µM
same,MIC,[16],≥ 64 µM
CC(C)C[C@H](NC(=O)[C@H](C)NC(=O)CNC(=O)[C@H](CCCN=C(N)N)NC(=O)[C@H](CCCN=C(N)N)NC(=O)[C@H](CCCN=C(N)N)NC(=O)[C@H](CCC(N)=O)NC(=O)[C@H](CCCN=C(N)N)NC(=O)[C@H](CCCN=C(N)N)NC(=O)[C@H](CCCCN)NC(=O)[C@H](CCCCN)NC(=O)[C@H](CCCN=C(N)N)NC(=O)CN)C(=O)N[C@@H](Cc1c[nH]c2ccccc12)C(=O)N[C@@H](CCCCN)C(=O)N[C@@H](CO)C(=O)N[C@@H](CC(C)C)C(=O)N[C@@H](CC(C)C)C(=O)N[C@@H](CCCCN)C(=O)N[C@@H](CC(N)=O)C(=O)N[C@H](C(=O)NCC(=O)N[C@@H](CCCCN)C(=O)N[C@@H](C)C(N)=O)C(C)C [GRKKRRQRRRGALWKSLLKNVGKA],MIC,[11],4 µM
same,MIC,[12],≥ 32 µM
same,MIC,[13],4 µM
same,MIC,[14],≥ 32 µM
same,MIC,[4],8 µM
same,MIC,[15],8 µM
same,MIC,[16],16 µM
CC[C@H](C)[C@H](NC(=O)CNC(=O)[C@H](CCCCN)NC(=O)[C@H](Cc1c[nH]c2ccccc12)NC(=O)[C@H](CC(C)C)NC(=O)[C@H](CC(C)C)NC(=O)[C@H](Cc1c[nH]c2ccccc12)NC(=O)[C@H](CCCCN)NC(=O)CNC(=O)[C@@H](NC(=O)[C@@H](N)CCCCN)[C@@H](C)CC)C(=O)N[C@@H](CCCCN)C(=O)N[C@@H](CCCCN)C(=O)N[C@H](C(=O)NCC(=O)N[C@@H](CCCCN)C(=O)N[C@@H](Cc1c[nH]c2ccccc12)C(=O)N[C@@H](CC(C)C)C(N)=O)[C@@H](C)CC [KIGKWLLWKGIKKIGKWL],MIC,[1],4 µM
same,MIC,Candida albicans,5.66 µM and 4 µM
same,MIC,[2],8 µM
same,MIC,[3],2 µM
CC(C)C[C@H](NC(=O)[C@H](CC(C)C)NC(=O)[C@H](CCCCN)NC(=O)[C@H](CCCCN)NC(=O)[C@H](CC(C)C)NC(=O)[C@H](CC(C)C)NC(=O)[C@H](CCCCN)NC(=O)[C@H](CCCCN)NC(=O)[C@H](CC(C)C)NC(=O)[C@H](CC(C)C)NC(=O)[C@H](CCCCN)NC(=O)[C@H](CCCCN)NC(=O)[C@H](CC(C)C)NC(=O)[C@@H](N)CC(C)C)C(=O)N[C@@H](CCCCN)C(=O)N[C@@H](CCCCN)C(N)=O [LLKKLLKKLLKKLLKK],MIC,[18],4.07 µM
same,MIC,[19],> 25.7 µM
same,MIC,[20],6.41 µM
same,MIC,[21],12.8 µM
same,MIC,[22],3.23 µM
same,MIC,[23],25.7 µM
NC(=O)C[C@H](N)C(=O)N[C@@H](Cc1cnc[nH]1)C(=O)N[C@@H](Cc1cnc[nH]1)C(=O)N[C@@H](CCCN=C(N)N)C(=O)N[C@@H](CCCN=C(N)N)C(=O)N[C@@H](Cc1cnc[nH]1)C(=O)N[C@@H](Cc1cnc[nH]1)C(=O)N[C@@H](CCCN=C(N)N)C(=O)N[C@@H](CS)C(=O)N[C@@H](CCCN=C(N)N)C(=O)O [NHHRRHHRCR],MIC,[24],> 22.7 µM
same,MIC,[25],22.7 µM
same,MIC,[26],22.7 µM
same,MIC,[20],> 22.7 µM
same,MIC,[27],> 22.7 µM
same,MIC,[4],> 22.7 µM
same,MIC,[9],> 22.7 µM
